Assay results taken from US10858386B2, “Drug compound and purification methods thereof” (Otsuka Pharmaceutical Co., Ltd., priority 2017, dated 2020).
Where “and” joins values, the source holds several entries; their conditions need not be identical. Equal entries are not always repeated.

Experiments:
Format in all cases: physicochemical
[1] = Reconstitution time of the lyophilized product in the diluent (65% propylene glycol, 25% glycerin, 10% ethanol); conditions: 1 mL diluent
Text: (§1) The requirements of a constituted solution are that there is no visible insoluble material and the solution is no less clear than the diluent after a predetermined amount of time. The volume for reconstitution can return the product to the same volume and concentration as the bulk solution used for filling or may be the volume intended for patient delivery in a clinical setting.
For reconstitution, a specified volume of a diluent can be drawn up into a syringe. The diluent can then be extruded into the center of the dried cake of the product and the timer started. The product is then inspected at approximately 5 second intervals to determine the time material dissolved.
Reconstitution was performed by extruding 1 mL of diluent into each vial using a vial adapter or syringe and allowing the vials to sit undisturbed until clear.
(§2) Following lyophilization, the lyophilized samples were analysed for purity (% purity by HPLC), DMSO residual content, and residual moisture. The samples were reconstituted by dissolving them in the non-aqueous solvent system described in TABLE 11 below and the reconstitution time and appearance of the reconstituted formulations were analysed.

[2] = Turbidity of pooled reconstituted samples (Hach 2100AN turbidimeter, NTU)
Text: Turbidity monitors the transmission of light through a liquid sample to determine whether the sample is clear or the degree of opalescence in the sample. The analysis can be performed using a Hach Model 2100AN Laboratory Turbidimeter. The Hach Model 2100AN is a ratio turbidimeter that uses the ratio of transmitted to scattered light to reduce error in the measurement caused by colored solutions.
Prior to each use, the Turbidimeter is calibrated with a Hach StabCal® Calibration Kit and then checked using Hach Gelex® Secondary Turbidity Standards. Sample cells are cleaned and oiled to reduce interference by dirt or imperfections in the glass. Sample cell indexing matches cells with similar interference for sample comparison.
Reconstituted samples can be pooled to achieve at least 2.5 mL of sample, which is placed in the indexed sample cells for analysis. The turbidimeter measures the opalescence and returns a value in nephelometric turbidity units (NTU) ratio. This value was recorded by the instrument with a time and date stamp to track each sample.

[3] = Thermogravimetric analysis (TGA) weight loss of the lyophilized product
Text: TGA can be used as a corroborative method for residual moisture determination where the change in weight is attributed to the evolution of volatile substances, such as water. In addition, TGA can be used to deter mine physico-chemical changes as the specimen begins to decompose at elevated temperatures.
TGA monitors the change in weight of a material as a function of temperature or time with heating. The analysis can be performed using a TA Instruments QSO per USP 891, Thermal Analysis. Test parameters and data analysis can conducted using TA Instruments Universal Analysis® software version 4.5A on a PC interface.
Solid material, with a weight of about 13 mg to about 19 mg, can be placed in an open ceramic sample pan. The sample is then heated from 25° C. to 400° C. using a warming rate of about 10° C. per minute to measure the weight loss across the temperature range. Nitrogen, NF is used to purge the sample continuously at a flow rate of 60 mL/minute. The instrument is calibrated at temperatures that span the range of high temperature analysis.
The lyophilized material is warmed and the sample weight can be monitored for any change. During warming, weight loss is correlated to the evolution of volatile components in the sample. Calculations identify the sample weight correlated to a temperature.

[4] = Appearance of the reconstituted solution
Protocol: as §1, §2

[5] = Example 8 Study E: low shelf temperature, low chamber pressure, 15 microns in secondary drying
[6] = Example 8 Study F: target parameters of TABLE 18
[7] = Example 8 Study E, 3 pooled samples per lot

SMILES: Nc1ncn(C2CC(OP(=O)([O-])OCC3OC(n4cnc5c(=O)[nH]c(N)nc54)CC3O)C(CO)O2)c(=O)n1.[Na+] (stereo not drawn) [Lot 1]
- Average Recon Time (min) [1, 5]: Lot 1: 17 min
- Average Recon Time (min) [1, 6]: Lot 1: 17.3 min
- Turbidity (NTU) [2, 7]: 0.799 NTU and 0.833 NTU and 0.756 NTU
- Weight Loss (% w/w), Total (TGA) ([3]; Example 8 Study F): Total: 18.93 % w/w
- Weight Loss (% w/w), Total (TGA) ([3]; Example 8 Study G, one vial): Total: 16.7 % w/w

SMILES: Nc1ncn(C2CC(OP(=O)([O-])OCC3OC(n4cnc5c(=O)[nH]c(N)nc54)CC3O)C(CO)O2)c(=O)n1.[Na+] (stereo not drawn) [Lot 2]
- Average Recon Time (min) [1, 5]: Lot 2: 17 min
- Average Recon Time (min) [1, 6]: Lot 2: 18 min
- Turbidity (NTU) [2, 7]: 0.795 NTU and 0.808 NTU and 0.867 NTU
- Weight Loss (% w/w), Total (TGA) ([3]; Example 8 Study F): Total: 19.82 % w/w

SMILES: Nc1ncn([C@H]2CC(OP(=O)(O)OC[C@H]3O[C@@H](n4cnc5c(=O)[nH]c(N)nc54)CC3O)[C@@H](CO)O2)c(=O)n1 (stereo partly drawn) [compound of Formula (1)]
- Average Recon Time [1, 6]: 17 to 18 min
- Turbidity (NTU) [2, 7]: below 3 NTU
- Turbidity (NTU) ([2]; Example 8 Study G, 3 pooled samples): 16.9 NTU and 16 NTU and 19 NTU
- Appearance of reconstituted solution ([4]; Example 7, lyophilization procedure of TABLE 16): clear reconstituted solution
- Appearance of reconstituted solution ([4]; Example 8 Study A): clear and colorless solutions
- Appearance of reconstituted solution ([4]; Example 8 Study B): clear and colorless solutions
- Appearance of reconstituted solution ([4]; Example 8 Study C): clear and colorless solutions
- Appearance of reconstituted solution ([4]; Example 8 Study D): clear and colorless solutions
- Appearance of reconstituted solution ([4]; Example 8 Study E): clear and colorless solutions
- Appearance of reconstituted solution ([4]; Example 8 Study F): clear and colorless solutions
- Appearance of reconstituted solution ([4]; Example 8 Study G): clear and colorless solutions
- Appearance of reconstituted solution ([4]; Example 8 Study H): clear and colorless solutions
- Appearance of reconstituted solution ([4]; Example 8 repeat of Study H): clear and colorless solutions
- TGA total weight loss ([3]; Example 2 full load, TABLE 6 cycle): 17%
- Weight Loss (% w/w), Total (TGA) ([3]; Example 8 Study B, vial 1 and 2): 17.35 % w/w and 18.07 % w/w
- Weight Loss (% w/w), Total (TGA) ([3]; Example 8 Study F): approximately 19 % w/w
- Weight Loss (% w/w), Total (TGA) ([3]; Example 8 Study G, one vial): approximately 17 % w/w
- TGA mass loss ([3]; Example 8 repeat of Study H, one vial): about 17 % w/w
